Results from patent publication US8835644B2, “Broad spectrum benzothiophene-nitrothiazolide and other antimicrobials” (University of Virginia Patent Foundation, priority 2009, dated 2014).
Converted amounts (≈) assume the structure as drawn. Like-named read-outs stand apart in the source and are kept apart here. Marks after values point to notes of the source that are not given here.

Columns and labels:
E. coli = test: MIC testing by broth dilution, E. coli plank; assay type: cell-based, Escherichia coli
How it was run: (§1)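 Values are broth-dilution MICs, defined as the well showing no growth on visual reading after 24 h; the tested range was 32 to 0.06 μg/ml, in organism-specific media (LB, Trypticase Soy, Brain Heart Infusion). The C. difficile entries come instead from anaerobic Kirby-Bauer disk zones, normalised to NTZ.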

MRSA = test: MIC testing by broth dilution, MRSA; assay type: cell-based, Staphylococcus aureus
How it was run: as §1

H. pylori = test: MIC testing by broth dilution, H. pylori; assay type: cell-based, Helicobacter pylori
How it was run: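 Broth dilution MIC determination against H. pylori: a standard inoculum in 100 microliters of Brain Heart Infusion medium was placed in 96 well microplates. Test compounds began at 32 μg/ml in 200 microliters in well one and were serially diluted over a 32 to 0.06 range. After 24 h, plates were scored by eye and the first well without growth was recorded as the MIC.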

C. difficile = test: Disk diffusion (Kirby Bower), C. difficile; assay type: cell-based, Clostridium difficile; conditions: for Disk Diff (%) C. difficile: Nitazoxanide = 100; for Disk Diffusion (%) C. difficile: zone of inhibited growth as relative ratio to the zone for NTZ
Procedure: A standard broth dilution protocol was used in 96 well microplates containing a standard dilution of the microorganism to be tested in 100 microliters of the appropriate medium. Appropriate medium: E. coli, LB medium; Staphylococcus strains, Trypticase Soy; and for H. pylori and C. jejuni, Brain Heart Infusion. The compounds to be tested were set at 32 μg/ml in 200 microliters in well one and then serially diluted to provide a range from 32 to 0.06. The wells were scored visually at 24 h. The well where there was no growth was recorded as the MIC. Clostridium difficile was tested by agar diffusion and disk diffusion (Kirby Bower) methods under anaerobic conditions on Wilkins Chalgrin agar. In these assays, zone of inhibited growth was measured and compared by relative ratio to the zone recorded for NTZ.
(§2) Representative compounds of the invention were tested in a series of assays against a series of organisms as described above. […] The organisms tested include, C. difficile, H. pylori, C. jejuni, MRSA, S. epidermidis, and E. coli. S. epidermidis and E. coli were tested in the plank and biofilm assay. A disk diffusion assay was also used for C. difficile. Direct PFOR enzyme assays were also performed. All analogues and derivatives were not tested on every organism in every type of assay (the “-” in each table means that it was not tested).

C. jejuni = test: MIC testing by broth dilution, C. jejuni; assay type: cell-based, Campylobacter jejuni
How it was run: as §1

S. epidermidis = test: MIC testing by broth dilution, S. epidermidis plank; assay type: cell-based, Staphylococcus epidermidis
How it was run: as §1

[1] = test system: PFOR (pyruvate ferredoxin oxidoreductase); test: Direct PFOR enzyme assay; assay type: biochemical
Procedure: as §2

[2] = broth dilution, LB medium, 24 h, read-out: MIC (μM) E. coli Plank
[3] = broth dilution, Trypticase Soy, 24 h, read-out: MIC (μM) MRSA
[4] = broth dilution, Brain Heart Infusion, 24 h, read-out: MIC (μM) H. pylori
[5] = broth dilution, Brain Heart Infusion, 24 h, read-out: MIC (μM) C. jejuni
[6] = broth dilution, Trypticase Soy, 24 h, read-out: MIC (μM) S. epidermidis Plank
[7] = Escherichia coli, 24 h, read-out: MIC (μM) E. coli Plank
[8] = Helicobacter pylori, 24 h, read-out: MIC (μM) H. pylori
[9] = Campylobacter jejuni, 24 h, read-out: MIC (μM) C. jejuni
[10] = planktonic, 2-amino-3,5-dinitrothiophene analogues table, read-out: MIC E. coli Plank
[11] = 2-amino-3,5-dinitrothiophene analogues table, read-out: MIC MRSA
[12] = 2-amino-3,5-dinitrothiophene analogues table, read-out: MIC H. pylori
[13] = 2-amino-3,5-dinitrothiophene analogues table
[14] = 2-amino-3,5-dinitrothiophene analogues table, read-out: MIC C. jejuni
[15] = planktonic, 2-amino-3,5-dinitrothiophene analogues table, read-out: MIC S. epidermidis Plank
[16] = * biphasic initial inhibition followed by uninhibited rate, ** caused some precipitant in extract

Compound | Disk Diffusion (%) C. difficile (C. difficile) | PFOR inhibition relative to nitazoxanide (=100) [1] | MIC (E. coli; [10]) | MIC (MRSA; [11]) | MIC (H. pylori; [12]) | Disk Diff (%) C. difficile (C. difficile; [13]) | MIC (C. jejuni; [14]) | MIC (S. epidermidis; [15]) | PFOR inhibition relative to nitazoxanide (=100) [1, 16] | also measured
O=C(Nc1ncc([N+](=O)[O-])s1)c1ccsc1 [VPC16a1008] |  |  |  |  |  |  |  |  |  | MIC (E. coli; planktonic, Thiophene analogues table, read-out: MIC E. coli Plank): 125.4 µM (≈ 32 µg/mL); MIC (MRSA; Thiophene analogues table, read-out: MIC MRSA): 23.5 µM (≈ 6 µg/mL); MIC (H. pylori; Thiophene analogues table, read-out: MIC H. pylori): 0.7 µM (≈ 0.179 µg/mL); Disk Diff (%) C. difficile (C. difficile; Thiophene analogues table): 100%; MIC (C. jejuni; Thiophene analogues table, read-out: MIC C. jejuni): 5.9 µM (≈ 1.51 µg/mL); MIC (S. epidermidis; planktonic, Thiophene analogues table, read-out: MIC S. epidermidis Plank): 15.7 µM (≈ 4.01 µg/mL); PFOR inhibition relative to nitazoxanide (=100) ([1]; Thiophene analogues table): 96%
O=C(Nc1ncc([N+](=O)[O-])s1)c1cc(C(F)(F)F)cc(C(F)(F)F)c1 [VPC16a1039] | 80% | 54* % |  |  |  |  |  |  |  | MIC (E. coli; [2]): 83.1 µM (≈ 32 µg/mL); MIC (MRSA; [3]): 2.6 µM (≈ 1 µg/mL); MIC (H. pylori; [4]): 5.2 µM (≈ 2 µg/mL); MIC (C. jejuni; [5]): 41.5 µM (≈ 16 µg/mL); MIC (S. epidermidis; [6]): 1.9 µM (≈ 0.732 µg/mL)
O=C(Nc1ncc([N+](=O)[O-])s1)c1cc(C(F)(F)F)ccc1Cl [VPC16a1040] | 90% | 68% |  |  |  |  |  |  |  | MIC (E. coli; [2]): 91.0 µM (≈ 32 µg/mL); MIC (MRSA; [3]): 22.7 µM (≈ 7.98 µg/mL); MIC (H. pylori; [4]): 1.1 µM (≈ 0.387 µg/mL); MIC (C. jejuni; [5]): 17.1 µM (≈ 6.01 µg/mL); MIC (S. epidermidis; [6]): 22.7 µM (≈ 7.98 µg/mL)
O=C(Nc1ncc([N+](=O)[O-])s1)c1cccnc1F [VPC16a1052, 2-Fluoro-N-(5-nitrothiazol-2-yl)nicotinamide] | 100% | 91% |  |  |  |  |  |  |  | MIC (E. coli; [7]): 119 µM (≈ 32 µg/mL); MIC (H. pylori; [8]): 3.7 µM (≈ 0.992 µg/mL); MIC (C. jejuni; [9]): 7.5 µM (≈ 2.01 µg/mL)
O=C(Nc1ncc([N+](=O)[O-])s1)c1ccc(Cl)c(C(F)(F)F)c1 [VPC16a1060] | 89% | 63* % |  |  |  |  |  |  |  | MIC (E. coli; [7]): 91 µM (≈ 32 µg/mL); MIC (H. pylori; [8]): 2.8 µM (≈ 0.985 µg/mL); MIC (C. jejuni; [9]): 2.8 µM (≈ 0.985 µg/mL)
O=C(Nc1sc([N+](=O)[O-])cc1[N+](=O)[O-])c1ccccc1 [VPC16b1090] |  |  | 109.1 µM (≈ 32 µg/mL) | 109.1 µM (≈ 32 µg/mL) | 1.3 µM (≈ 0.381 µg/mL) | 0% | 0.9 µM (≈ 0.264 µg/mL) | 5.1 µM (≈ 1.5 µg/mL) | 100** % | 
O=C(Nc1sc([N+](=O)[O-])cc1[N+](=O)[O-])c1cccc(C(F)(F)F)c1 [VPC16b1092] |  |  | 88.6 µM (≈ 32 µg/mL) | 1.4 µM (≈ 0.506 µg/mL) | 0.5 µM (≈ 0.181 µg/mL) | 59% | 2.1 µM (≈ 0.759 µg/mL) | 0.2 µM (≈ 0.0723 µg/mL) | 87** % | 
O=C(Nc1sc([N+](=O)[O-])cc1[N+](=O)[O-])c1cccs1 [VPC16b1093, N-(3,5-Dinitrothiophen-2-yl)thiophene-2-carboxamide] |  |  |  |  |  | 43% |  |  | 143% | MIC (E. coli; Escherichia coli, read-out: MIC E. coli Plank): 107 µM (≈ 32 µg/mL); MIC (MRSA; Staphylococcus aureus, MRSA, read-out: MIC MRSA): 26.7 µM (≈ 7.99 µg/mL); MIC (H. pylori; Helicobacter pylori, read-out: MIC H. pylori): 2.5 µM (≈ 0.748 µg/mL); MIC (C. jejuni; Campylobacter jejuni, read-out: MIC C. jejuni): 1 µM (≈ 0.299 µg/mL); MIC (S. epidermidis; Staphylococcus epidermidis, read-out: MIC S. epidermidis Plank): 13.4 µM (≈ 4.01 µg/mL)
O=C(Nc1sc([N+](=O)[O-])cc1[N+](=O)[O-])c1ccoc1 [VPC16b1094] |  |  | 113.0 µM (≈ 32 µg/mL) | 56.5 µM (≈ 16 µg/mL) | 2.7 µM (≈ 0.765 µg/mL) | 53% | 0.4 µM (≈ 0.113 µg/mL) | 28.2 µM (≈ 7.99 µg/mL) | 126* % | 
